Laboratory results: the supplement of paper PMC10307832

Tests used:
Assay in all cases: relative viability (nuclei count vs DMSO), 5 days (fraction); higher = more cells survive
201T = system: 201T
Procedure, shortened: (§1)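 Relative viability was taken as the ratio of nuclei in treated wells to nuclei in vehicle wells. Lung cancer cell lines in 1536-well plates received compounds by pin tool one day after seeding, either one drug alone or a fixed anchor-drug dose plus five library-drug doses (not always all listed) in √10 steps. Nuclei were counted on 4× images after 5 days of treatment, and values are medians of duplicate plates.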

BEN = system: BEN
Procedure, shortened: as §1

COR-L 105 = system: COR-L 105
Procedure, shortened: as §1

EMC-BAC-2 = system: EMC-BAC-2
Procedure, shortened: as §1

H3255 = system: H3255
Procedure, shortened: as §1

HARA = system: HARA
Procedure, shortened: as §1

HCC-78 = system: HCC-78
Procedure, shortened: as §1

HOP-62 = system: HOP-62
Procedure, shortened: as §1

LC-2-ad = system: LC-2-ad
Procedure, shortened: as §1

LOU-NH91 = system: LOU-NH91
Procedure, shortened: as §1

LU99A = system: LU99A
Procedure, shortened: as §1

LXF-289 = system: LXF-289
Procedure, shortened: as §1

NCI-H1395 = system: NCI-H1395
Procedure, shortened: as §1

NCI-H1563 = system: NCI-H1563
Procedure, shortened: as §1

NCI-H1993 = system: NCI-H1993
Procedure, shortened: as §1

NCI-H2087 = system: NCI-H2087
Procedure, shortened: as §1

NCI-H2126 = system: NCI-H2126
Procedure, shortened: as §1

NCI-H2170 = system: NCI-H2170
Procedure, shortened: as §1

NCI-H650 = system: NCI-H650
Procedure, shortened: as §1

RERF-LC-KJ = system: RERF-LC-KJ
Procedure, shortened: as §1

SK-MES-1 = system: SK-MES-1
Procedure, shortened: as §1

UMC-11 = system: UMC-11
Procedure, shortened: as §1

With `Cc1cn(-c2cc(NC(=O)c3ccc(C)c(Nc4nccc(-c5cccnc5)n4)c3)cc(C(F)(F)F)c2)cn1` [Nilotinib] + CS(=O)(=O)N1CCN(Cc2cc3nc(-c4cccc5[nH]ncc45)nc(N4CCOCC4)c3s2)CC1 [Pictilisib] (partner 1 µM) the relative viability (201T; first compound 0.001 µM) was 0.732, the relative viability (201T; first compound 0.003162 µM) was 0.742 and the relative viability (201T; first compound 0.01 µM) was 0.531. It also gave a relative viability (201T; first compound 0.1 µM) of 0.459, a relative viability (BEN; first compound 0.001 µM) of 0.588 and a relative viability (BEN; first compound 0.003162 µM) of 0.552. It also gave a relative viability (BEN; first compound 0.01 µM) of 0.574, a relative viability (BEN; first compound 0.1 µM) of 0.556 and a relative viability (COR-L 105; first compound 0.001 µM) of 0.435. It also gave a relative viability (COR-L 105; first compound 0.01 µM) of 0.407, a relative viability (COR-L 105; first compound 0.03162 µM) of 0.437 and a relative viability (COR-L 105; first compound 0.1 µM) of 0.331. The relative viability (EMC-BAC-2; first compound 0.001 µM) was 0.528, the relative viability (EMC-BAC-2; first compound 0.003162 µM) was 0.538 and the relative viability (EMC-BAC-2; first compound 0.01 µM) was 0.606. For the same compound, the relative viability (EMC-BAC-2; first compound 0.03162 µM) was 0.486, the relative viability (EMC-BAC-2; first compound 0.1 µM) was 0.479 and the relative viability (H3255; first compound 0.001 µM) was 0.44. It also gave a relative viability (H3255; first compound 0.003162 µM) of 0.438, a relative viability (H3255; first compound 0.01 µM) of 0.57 and a relative viability (H3255; first compound 0.03162 µM) of 0.416. For the same compound, the relative viability (H3255; first compound 0.1 µM) was 0.441, the relative viability (HARA; first compound 0.001 µM) was 0.445 and the relative viability (HARA; first compound 0.003162 µM) was 0.307. For the same compound, the relative viability (HARA; first compound 0.01 µM) was 0.458, the relative viability (HARA; first compound 0.03162 µM) was 0.197 and the relative viability (HARA; first compound 0.1 µM) was 0.186. The relative viability (HCC-78; first compound 0.001 µM) was 0.211, the relative viability (HCC-78; first compound 0.003162 µM) was 0.178 and the relative viability (HCC-78; first compound 0.01 µM) was 0.198. It also gave a relative viability (HCC-78; first compound 0.03162 µM) of 0.202, a relative viability (HCC-78; first compound 0.1 µM) of 0.224 and a relative viability (HOP-62; first compound 0.001 µM) of 0.539. It also gave a relative viability (HOP-62; first compound 0.003162 µM) of 0.902, a relative viability (HOP-62; first compound 0.01 µM) of 0.587 and a relative viability (HOP-62; first compound 0.03162 µM) of 0.63. The relative viability (HOP-62; first compound 0.1 µM) was 0.401, the relative viability (LC-2-ad; first compound 0.001 µM) was 0.385 and the relative viability (LC-2-ad; first compound 0.003162 µM) was 0.518. The relative viability (LC-2-ad; first compound 0.01 µM) was 0.547, the relative viability (LC-2-ad; first compound 0.03162 µM) was 0.379 and the relative viability (LC-2-ad; first compound 0.1 µM) was 0.117. For the same compound, the relative viability (LOU-NH91; first compound 0.001 µM) was 0.548, the relative viability (LOU-NH91; first compound 0.003162 µM) was 0.537 and the relative viability (LOU-NH91; first compound 0.01 µM) was 0.543. For the same compound, the relative viability (LOU-NH91; first compound 0.03162 µM) was 0.483, the relative viability (LOU-NH91; first compound 0.1 µM) was 0.54 and the relative viability (LU99A; first compound 0.001 µM) was 0.295. For the same compound, the relative viability (LU99A; first compound 0.003162 µM) was 0.412, the relative viability (LU99A; first compound 0.01 µM) was 0.328 and the relative viability (LU99A; first compound 0.03162 µM) was 0.342. It also gave a relative viability (LU99A; first compound 0.1 µM) of 0.277, a relative viability (LXF-289; first compound 0.001 µM) of 0.837 and a relative viability (LXF-289; first compound 0.003162 µM) of 0.946. For the same compound, the relative viability (LXF-289; first compound 0.01 µM) was 0.858, the relative viability (LXF-289; first compound 0.03162 µM) was 0.667 and the relative viability (LXF-289; first compound 0.1 µM) was 0.335. For the same compound, the relative viability (NCI-H1395; first compound 0.001 µM) was 0.711, the relative viability (NCI-H1395; first compound 0.003162 µM) was 0.581 and the relative viability (NCI-H1395; first compound 0.01 µM) was 0.566. It also gave a relative viability (NCI-H1395; first compound 0.03162 µM) of 0.552, a relative viability (NCI-H1395; first compound 0.1 µM) of 0.401 and a relative viability (NCI-H1563; first compound 0.001 µM) of 0.553. For the same compound, the relative viability (NCI-H1563; first compound 0.003162 µM) was 0.608, the relative viability (NCI-H1563; first compound 0.01 µM) was 0.649 and the relative viability (NCI-H1563; first compound 0.03162 µM) was 0.602. The relative viability (NCI-H1563; first compound 0.1 µM) was 0.46, the relative viability (NCI-H1993; first compound 0.001 µM) was 0.984 and the relative viability (NCI-H1993; first compound 0.003162 µM) was 0.682. The relative viability (NCI-H1993; first compound 0.01 µM) was 0.789, the relative viability (NCI-H1993; first compound 0.03162 µM) was 0.917 and the relative viability (NCI-H1993; first compound 0.1 µM) was 0.673. The relative viability (NCI-H2087; first compound 0.001 µM) was 0.759, the relative viability (NCI-H2087; first compound 0.003162 µM) was 0.846 and the relative viability (NCI-H2087; first compound 0.01 µM) was 0.984. It also gave a relative viability (NCI-H2087; first compound 0.03162 µM) of 0.606, a relative viability (NCI-H2087; first compound 0.1 µM) of 0.32 and a relative viability (NCI-H2126; first compound 0.001 µM) of 0.494. It also gave a relative viability (NCI-H2126; first compound 0.003162 µM) of 0.501, a relative viability (NCI-H2126; first compound 0.01 µM) of 0.393 and a relative viability (NCI-H2126; first compound 0.03162 µM) of 0.546. The relative viability (NCI-H2126; first compound 0.1 µM) was 0.378, the relative viability (NCI-H2170; first compound 0.001 µM) was 0.283 and the relative viability (NCI-H2170; first compound 0.003162 µM) was 0.306. The relative viability (NCI-H2170; first compound 0.01 µM) was 0.296, the relative viability (NCI-H2170; first compound 0.03162 µM) was 0.349 and the relative viability (NCI-H2170; first compound 0.1 µM) was 0.299. For the same compound, the relative viability (NCI-H650; first compound 0.001 µM) was 0.817, the relative viability (NCI-H650; first compound 0.003162 µM) was 0.775 and the relative viability (NCI-H650; first compound 0.01 µM) was 0.841. The relative viability (NCI-H650; first compound 0.03162 µM) was 0.853, the relative viability (NCI-H650; first compound 0.1 µM) was 0.767 and the relative viability (RERF-LC-KJ; first compound 0.001 µM) was 0.549. It also gave a relative viability (RERF-LC-KJ; first compound 0.003162 µM) of 0.572, a relative viability (RERF-LC-KJ; first compound 0.01 µM) of 0.533 and a relative viability (RERF-LC-KJ; first compound 0.03162 µM) of 0.591. For the same compound, the relative viability (RERF-LC-KJ; first compound 0.1 µM) was 0.55, the relative viability (SK-MES-1; first compound 0.001 µM) was 0.433 and the relative viability (SK-MES-1; first compound 0.003162 µM) was 0.447. It also gave a relative viability (SK-MES-1; first compound 0.01 µM) of 0.424, a relative viability (SK-MES-1; first compound 0.03162 µM) of 0.396 and a relative viability (SK-MES-1; first compound 0.1 µM) of 0.465. The relative viability (UMC-11; first compound 0.001 µM) was 0.801, the relative viability (UMC-11; first compound 0.003162 µM) was 1.03 and the relative viability (UMC-11; first compound 0.01 µM) was 0.972. It also gave a relative viability (UMC-11; first compound 0.1 µM) of 0.287.
